{"source": "patent US6582899B1", "about": "“Methods for identifying agents that cause a lethal phenotype, and agents thereof” (Deltagen Proteomics, Inc., priority 2000, dated 2003)", "molecules": {"B1": {"name": "0195: cytotoxic agent isolated from clone 0195, SEQ ID NO: 22 (protein)", "chain": "PEILSRSHLLLAGQTLIGVVAMVVEAEGEEDPWAVEAMEVVAVVVVAEEDFPVEVVAVEDSSELVTGSVLIPPVRI"}, "B2": {"name": "BID: BID clone among the Sort VI clones tested in the HT29 floater assay (FIG. 10) (protein, UniProt P55957 1-195, looked up)", "BH3-interacting domain death …": "MDCEVNNGSSLRDECITNLLVFGFLQSCSDNSFRRELDALGHELPVLAPQWEGYDELQTDGNRSSHSRLGRIEADSESQEDIIRNIARHLAQVGDSMDRSIPPGLVNGLALQLRNTSRSEEDRNRDLATALEQLLQAYPRDMEKEKTMLVLALLLAKKVASHTPSLLRDVFHTTVNFINQNLRTYVRSLARNGMD"}}, "key": {"HT29 cells": {"tested_on": "HT29 cells", "assay": "Induction of apoptosis in HT29 cells (detachment, nuclear morphology)", "format": "cell-based", "conditions": "after 48 hours of treatment"}, "[1]": {"biological_target": "epitope in the mitochondrial membrane that is exposed only in cells that are undergoing apoptosis (Jurkat cells, permeabilized with digitonin)", "assay": "flow cytometry, digitonin-permeabilized Jurkat cells, 0 hours in anti-FAS antibody"}, "[2]": {"biological_target": "epitope in the mitochondrial membrane that is exposed only in cells that are undergoing apoptosis (Jurkat cells, permeabilized with digitonin)", "assay": "flow cytometry, digitonin-permeabilized Jurkat cells, 21 hours in anti-FAS antibody (1 ug/ml)"}, "[3]": {"tested_on": "ecdysone receptor (pVgRXR)", "assay": "Induction of GFP fluorescence from ecdysone-regulated vector pBIGFII in ECR293 cells", "format": "cell-based", "conditions": "5 μM, cells containing pBIGFII and pVgRXR", "text": "As an alternative to the constitutive pCLMFG vector, an inducible construct that can be regulated by ecdysone was constructed as follows. The PmII/XhoI fragment from pVT324 was inserted into the MCS of the PIND vector (Invitrogen). This product was then digested with BgIII, blunt-ended and inserted into a pBabe-K-ras vector (pVT313-based) that had been digested with BamHI/XhoI and blunted (Klenow Fragment). The resulting vector was designated pBabe-Forward-1. The XbaI fragment of pVT324 was then inserted into the compatible site of pBabe-Forward-1. The resulting vector was designated pBIGFII. Vector pBIGFII was subsequently transfected into cells (ECR293, Invitrogen) that contain an endogenous copy of the ecdysone receptor (pVgRXR)."}, "HS294T cells": {"tested_on": "HS294T cells", "assay": "Ethidium homodimer/Syto16 staining for cell death and nuclear morphology", "format": "cell-based", "procedure": "(§1) Two cell lines, WM35 and HS294T, were plated out (50,000 cells per well, 24 well plate) and allowed to adhere. After 24 hours, the cells were treated for 4 hours with varying concentrations (5-80 μM) of Cisplatin (cis-platinum (II) diammine dichloride), a well-known chemotherapeutic agent that induces apoptosis. […] Adherent cell populations were then lifted from the solid support by trypsinization, centrifuged (400×g), and resuspended in PBS (0.125 ml). To observe the nuclear morphology and percent cell death in the WM35 and HS294T cell lines, cells from both floater and adherent populations were stained concurrently with Syto16 and ethidium homodimer (125 ul of cell suspension+2.5 ul 62.5 uM Syto16+[…] 100 ug/ml ethidium homodimer, 10 minutes at 37° C.). Ethidium homodimer is a membrane impermeant compound that fluoresces in the 617 nm range when it is intercalated with chromosomal DNA. Thus, in a mixed cell population containing both living and dead/dying cells, only those cells whose membranes have been compromised will stain with ethidium homodimer. In contrast, Syto 16 (Molecular Probes) is a membrane permeant dye that fluoresces in the 518 nm range when associated with chromosomal DNA. Together, these two dyes can be used to observe and distinguish the nuclear morphology in a population containing both living and dead/dying cells."}, "WM35 cells": {"tested_on": "WM35 cells", "assay": "Ethidium homodimer/Syto16 staining for cell death and nuclear morphology", "format": "cell-based", "procedure": "as §1"}, "WM35 (melanoma) cells": {"tested_on": "WM35 (melanoma) cells", "assay": "Caspase-3 fluorescent substrate (Rhodamine 123-YVAD) and PI staining of floater cells, FACS", "format": "cell-based", "conditions": "PI-minus floater cells, 15 μg/ml, 18-24 hours after induction", "procedure": "WM35 cells were passed one day prior to induction of apoptosis and incubated for 24 hrs to allow the cells to attach to the substrate. The media was subsequently removed, the remaining adherent cells washed 1× with PBS, and subsequently exposed to Cisplatin (15 μg/ml) in fresh media. Eighteen to twenty-four hours after the induction of apoptosis, the floater cell population was collected, pelleted by centrifugation (400×g), and resuspended at 3×10^6 cells/ml in PBS. Samples were then split into four groups: (1) uninduced minus Rhodamine 123-YVAD (substrate), (2) uninduced plus substrate, (3) induced minus substrate, and (4) induced plus substrate. For samples exposed to Rhodamine 123-YVAD substrate, 50 ul of a pre-warmed (37° C.) cell suspension was combined with 25 ul of a stock substrate solution (Cellprobe). Samples were incubated for 60 minutes at 37° C. and then placed on ice prior to FACS analysis. In addition to caspase-3 staining, a replicate of each sample was stained with propidium iodide to determine the percentage of cells within the population whose membranes had been compromised and the overlap between PI and caspase-3 staining. […] Emission spectra were read at 515-535 nm wavelength using the FL1 (PMT2) 525 nm blue filter."}, "HuVECs 9F0293 cells": {"tested_on": "HuVECs 9F0293 cells", "assay": "Time course of detachment and PI staining of HuVECs (9F0293)", "format": "cell-based, Human", "conditions": "2 ug/ml", "procedure": "To determine the time course in which dead and/or dying HuVECs detach from the solid support in response to a cytotoxic agent, 9F0293 cells were plated and subsequently treated with puromycin (2 ug/ml). Both floater and adherent cell populations were then collected at varying times (t=4, 7, 9, 16, 20, and 24 hours) and analyzed to determine (a) the percent PI^+ cells in the floater population and (b) the fraction of cells which became floaters. […] The fraction of floaters that stained with PI (PI^+ population) increased with time."}, "HT29 colon cancer cells": {"tested_on": "HT29 colon cancer cells", "assay": "HT29 floater assay (negative selection)", "format": "cell-based", "conditions": "for level of floaters relative to background: Sort VI clones, FIG. 10", "procedure": "HT29 cells were tested for feasibility in the floater cell assay as follows. Briefly, six flasks were inoculated with 6.25×10^5 HT29 cells/flask on Day 0. On Day 1, after the cells had been allowed to adhere to the solid support, two of these flasks were infected with retroviral supernatant containing the retroviral vector pVT324, which includes a selectable drug resistant marker (e.g. neomycin), and which constitutively expresses a green fluorescent protein. Of the remaining four flasks, two were mock infected (i.e. exposed to all of the same reagents/conditions as flasks 1 and 2, minus the retrovirus, see “Example 3C”) and two were left undisturbed. On Day 2, this procedure was repeated (i.e. a double infection). On Day 3 (and subsequently on Day 5) one flask was selected from each of the three groups and processed by separating and counting the floater and adherent cell populations. In the case of the floater cell population, the media was collected, centrifuged at 200×g for 10 minutes, and resuspended in PBS prior to removing a sample for counting on a hemocytometer. For the adherent cell population, cells were first removed from the flask by trypsinization, centrifuged, and then processed for analysis in a fashion analogous to the floater cells. To determine the inherent background level of floater cells present in the population, the ratio of the number of floater cells to the total number of cells (adherent cells+floater cells) was analyzed on both the Day 3 and Day 5 flasks that had not been manipulated. These numbers were compared with the analogous numbers taken from infected and mock-infected flasks to determine whether the retrovirus or transfection procedures altered background floater rates. To determine the susceptibility of HT29 cells to retroviral infection, the fraction of cells that expressed GFP in pVT324 infected flasks was calculated using flow cytometry.\nTwenty T175 flasks were seeded with 2.2×10^6 HT29 cells/flask in McCoy's 5A media (Gibco BRL) modified with 10% FBS. On Day 1, each flask was infected (4 μg/ml polybrene, 50% volume) with a retroviral supernatant containing a commercially obtained brain cDNA library (“Example Three” above). On Day 2 the media was changed. On Day 3 both the floater and adherent cell populations were collected (separately) from the twenty flasks. Approximately 652,500 floaters were isolated from a theoretical background of 4.2×10^7 adherents (1.5% floaters) and frozen down for future studies. […] Additional floater cells were then collected Day 5, where the collection and counting procedures were repeated and some 7.8×10^6 floaters and 7.6×10^8 adherents were counted (1.03% floaters). […] The floater populations of Days 3 and 5 were then combined and readied for a genomic DNA prep using a QIAamp kit (Qiagen) following standard procedures. Briefly, some 9×10^6 floater cells in PBS were lysed to release gDNA. This material was passed over a QIAamp column that was then washed several times to remove protein and RNA contaminants. Twenty-seven micrograms of genomic DNA were then eluted from the columns with dH2O and treated with RNAse A to eliminate any RNA contamination. This gDNA was then subjected to PCR procedures to amplify the library sequences encoded therein. […]"}, "T47D cells": {"tested_on": "T47D cells", "assay": "Kill curve in T47D cells (cell number after 5 days)", "format": "cell-based", "procedure": "Approximately 250,000 cells were seeded into each well of a six well plate. Cells were then grown in media containing camptothecin of varying concentrations (0-10 uM). After 5 days, the number of cells remaining in each of the camptothecin-treated wells was compared with untreated controls. From these experiments, it was determined that camptothecin concentrations ranging from 1-4 nM had no effect on T47D cell number over the course of the 5 days of treatment. […] In order to determine whether this level of treatment is concomitantly increasing the number of floaters in the population, several flasks are seeded with T47D cells and then treated with 1-4 nM concentrations of camptothecin. After a period of three to five days, the media is collected and the number of floater cells are counted and compared to the total number of cells in the flask (floaters+adherents)."}, "[4]": {"conditions": "floater population, 5-80 μM for 4 hours, 18-24 hrs later"}}, "note": "Where no end group is shown, it is not given here.", "data": [{"molecule": "CSc1ccc(/C=C2/C(C)=C(CC(=O)O)c3cc(F)ccc32)cc1", "note": "[sulindac sulfide]", "values": [{"measurement": "detachment and apoptotic morphology", "setting": "HT29 cells", "result": "majority of the cells had detached from the dish and showed typical apoptotic morphology"}]}, {"molecule": "Apo2.7 monoclonal antibody (Coulter Immunotech), fluorescent R-phycoerythrin-cyanin labeled", "values": [{"measurement": "percent of population labeled", "setting": "[1]", "result": 4, "unit": "%"}, {"measurement": "percent of population labeled", "setting": "[2]", "result": 81, "unit": "%"}]}, {"molecule": "CC(C)CC[C@@H](O)[C@](C)(O)[C@H]1CC[C@@]2(O)C3=CC(=O)[C@@H]4C[C@@H](O)[C@@H](O)C[C@]4(C)[C@H]3CC[C@]12C", "note": "[ponesterone A]", "values": [{"measurement": "increase of the level of fluorescence", "setting": "[3]", "result": "approximately thirty"}]}, {"molecule": "N.N.[Cl-].[Cl-].[Pt+2]", "note": "[Cisplatin, cis-platinum (II) diammine dichloride]", "values": [{"measurement": "ethidium homodimer staining of adherent cell population", "setting": "HS294T cells; adherent population", "result": "< 10", "unit": "%"}, {"measurement": "cells showing condensed or fragmented nuclei", "setting": "HS294T cells; ethidium homodimer stained floater cells, fluorescent microscopy", "result": "< 20", "unit": "%"}, {"measurement": "floater cells stained with ethidium homodimer", "setting": "HS294T cells; [4]", "result": "greater than 50%"}, {"measurement": "ethidium homodimer staining of adherent cell population", "setting": "WM35 cells; adherent population", "result": "< 10", "unit": "%"}, {"measurement": "ethidium homodimer staining of floaters", "setting": "WM35 cells; [4]", "result": "45-50%"}, {"measurement": "condensed or fragmented nuclei in floaters", "setting": "WM35 cells; floaters, higher concentrations", "result": "40-50%"}, {"measurement": "caspase-3 positive cells", "setting": "WM35 (melanoma) cells", "result": 94.6, "unit": "%"}]}, {"molecule": "COc1ccc(C[C@H](N)C(=O)N[C@H]2[C@@H](O)[C@H](n3cnc4c(N(C)C)ncnc43)O[C@@H]2CO)cc1", "note": "[puromycin]", "values": [{"measurement": "time point at which the majority of cells detached", "setting": "HuVECs 9F0293 cells", "result": 16, "unit": "h"}, {"measurement": "floater cells in the PI+ gate", "setting": "HuVECs 9F0293 cells; by 20 hours", "result": "nearly all"}]}, {"molecule": "0328: cytotoxic agent isolated from clone 0328, SEQ ID NO: 23 (XXAVAWLGSTGMTCGAQRLRSLR; X: residue not identified in the source) [compound 0328]", "values": [{"measurement": "level of floaters relative to background", "setting": "HT29 colon cancer cells", "result": "increased levels of floaters that were statistically significant relative to background"}, {"measurement": "floater rate", "setting": "HT29 colon cancer cells; individual clone reintroduced into HT29 cells", "result": 2, "unit": "%"}]}, {"molecule": "CC[C@@]1(O)C(=O)OCc2c1cc1n(c2=O)Cc2cc3ccccc3nc2-1", "note": "[camptothecin]", "values": [{"measurement": "cell number relative to the untreated control", "setting": "T47D cells; 10 nM, 5 days", "result": "roughly one third"}, {"measurement": "concentrations with no effect on cell number", "setting": "T47D cells; 5 days of treatment", "result": "1 to 4", "unit": "nM"}]}, {"molecule": "B1", "values": [{"measurement": "level of floaters relative to background", "setting": "HT29 colon cancer cells", "result": "increased levels of floaters that were statistically significant relative to background"}]}, {"molecule": "B2", "values": [{"measurement": "level of floaters relative to background", "setting": "HT29 colon cancer cells", "result": "increased levels of floaters that were statistically significant relative to background"}]}]}
